Reference: ChEMBL document CHEMBL3885881, “DrugMatrix”

Organism: Rattus norvegicus
Test: DrugMatrix - Regimen: Daily Repeat
Format: toxicity, organism-based, Sprague-Dawley
Design: regimen Daily Repeat, gender Male, age 6-8 weeks
Settings: in vivo, sc, route mini-PUMP - SUBCUTANEOUS, vehicle 100 % SALINE; for ABSOLUTE BASOPHIL / ABSOLUTE EOSINOPHIL / ABSOLUTE LYMPHOCYTE / ABSOLUTE MONOCYTE / ABSOLUTE SEGMENTED NEUTROPHIL / BASOPHIL / EOSINOPHIL / ERYTHROCYTE COUNT / HEMOGLOBIN / LEUKOCYTE COUNT / LYMPHOCYTE / MEAN CORPUSCULAR HEMOGLOBIN / MEAN CORPUSCULAR HEMOGLOBIN CONCENTRATION / MEAN CORPUSCULAR VOLUME / NUCLEATED RED BLOOD CELLS / PLATELET COUNT: tissue Blood; for ALANINE AMINOTRANSFERASE / ALBUMIN / ALKALINE PHOSPHATASE / ASPARTATE AMINOTRANSFERASE / BLOOD UREA NITROGEN / CARBON DIOXIDE / CHLORIDE / CHOLESTEROL / CREATININE / LACTATE DEHYDROGENASE / LIPASE / PHOSPHORUS / POTASSIUM / SODIUM / TOTAL BILIRUBIN / TOTAL PROTEIN: tissue Plasma
[1] = 0 mg/kg, 72 h, dose level Control, time 3 day
[2] = 0 mg/kg, 120 h, dose level Control, time 5 day
[3] = 0 mg/kg, […], dose level Control, time 14 day
[4] = […], 72 h, dose 0.77 mg/Kg, dose level High, time 3 day
[5] = […], 120 h, dose 0.77 mg/Kg, dose level High, time 5 day

## CNCC(O)c1ccc(O)c(O)c1 (configuration not stated) [RACEPINEPHRINE]
[1]
  ABSOLUTE BASOPHIL: 0 CELLS/uL
  ABSOLUTE EOSINOPHIL: 77.17 CELLS/uL
  ABSOLUTE LYMPHOCYTE: 14293.83 CELLS/uL
  ABSOLUTE MONOCYTE: 354 CELLS/uL
  ABSOLUTE SEGMENTED NEUTROPHIL: 1658.33 CELLS/uL
  BASOPHIL: 0%
  EOSINOPHIL: 0.5%
  ERYTHROCYTE COUNT: 6.27 x10E6/uL
  HEMOGLOBIN: 13.4 G/DL
  LEUKOCYTE COUNT: 16.38 x10E3/uL
  LYMPHOCYTE: 87.17%
  MEAN CORPUSCULAR HEMOGLOBIN: 21.42 pg
  MEAN CORPUSCULAR HEMOGLOBIN CONCENTRATION: 36.27 G/DL
  MEAN CORPUSCULAR VOLUME: 59.03 fL
  NUCLEATED RED BLOOD CELLS: 0 /100WBC
  PLATELET COUNT: 904.67 x10E3/uL
  ALANINE AMINOTRANSFERASE: 48.33 u/L
  ALBUMIN: 3.82 G/DL
  ALKALINE PHOSPHATASE: 282.33 u/L
  ASPARTATE AMINOTRANSFERASE: 86.83 u/L
  BLOOD UREA NITROGEN: 20.17 mg/dL
  CARBON DIOXIDE: 34.67 mmol/L
  CHLORIDE: 102 MEQ/L
  CHOLESTEROL: 71.5 mg/dL
  CREATININE: 0.2 mg/dL
  LACTATE DEHYDROGENASE: 159 u/L
  LIPASE: 9 u/L
  PHOSPHORUS: 10.12 mg/dL
  POTASSIUM: 5.92 MEQ/L
  SODIUM: 147.8 MEQ/L
  TOTAL BILIRUBIN: 0.2 mg/dL
  TOTAL PROTEIN: 6.05 G/DL
[2]
  ABSOLUTE BASOPHIL: 0 CELLS/uL
  ABSOLUTE EOSINOPHIL: 0 CELLS/uL
  ABSOLUTE LYMPHOCYTE: 14257.33 CELLS/uL
  ABSOLUTE MONOCYTE: 326 CELLS/uL
  ABSOLUTE SEGMENTED NEUTROPHIL: 3216.67 CELLS/uL
  BASOPHIL: 0%
  EOSINOPHIL: 0%
  ERYTHROCYTE COUNT: 6.11 x10E6/uL
  HEMOGLOBIN: 13.18 G/DL
  LEUKOCYTE COUNT: 17.8 x10E3/uL
  LYMPHOCYTE: 80.5%
  MEAN CORPUSCULAR HEMOGLOBIN: 21.62 pg
  MEAN CORPUSCULAR HEMOGLOBIN CONCENTRATION: 36.42 G/DL
  MEAN CORPUSCULAR VOLUME: 59.37 fL
  NUCLEATED RED BLOOD CELLS: 0 /100WBC
  PLATELET COUNT: 1311 x10E3/uL
  ALANINE AMINOTRANSFERASE: 47 u/L
  ALBUMIN: 3.83 G/DL
  ALKALINE PHOSPHATASE: 260.33 u/L
  ASPARTATE AMINOTRANSFERASE: 76.17 u/L
  BLOOD UREA NITROGEN: 14.67 mg/dL
  CARBON DIOXIDE: 31.33 mmol/L
  CHLORIDE: 101.17 MEQ/L
  CHOLESTEROL: 75 mg/dL
  LACTATE DEHYDROGENASE: 147.33 u/L
  LIPASE: 9.33 u/L
  PHOSPHORUS: 10.97 mg/dL
  POTASSIUM: 6 MEQ/L
  SODIUM: 145.52 MEQ/L
  TOTAL PROTEIN: 5.83 G/DL
[3]
  ABSOLUTE BASOPHIL: 0 CELLS/uL
  ABSOLUTE EOSINOPHIL: 64.5 CELLS/uL
  ABSOLUTE LYMPHOCYTE: 12507.83 CELLS/uL
  ABSOLUTE MONOCYTE: 380.33 CELLS/uL
  ABSOLUTE SEGMENTED NEUTROPHIL: 2414 CELLS/uL
  BASOPHIL: 0%
  EOSINOPHIL: 0.5%
  ERYTHROCYTE COUNT: 6.1 x10E6/uL
  HEMOGLOBIN: 12.88 G/DL
  LEUKOCYTE COUNT: 15.37 x10E3/uL
  LYMPHOCYTE: 80.83%
  MEAN CORPUSCULAR HEMOGLOBIN: 21.18 pg
  MEAN CORPUSCULAR HEMOGLOBIN CONCENTRATION: 36.43 G/DL
  MEAN CORPUSCULAR VOLUME: 58.17 fL
  NUCLEATED RED BLOOD CELLS: 0.17 /100WBC
  PLATELET COUNT: 1016 x10E3/uL
  ALANINE AMINOTRANSFERASE: 53.33 u/L
  ALBUMIN: 3.93 G/DL
  ALKALINE PHOSPHATASE: 319.83 u/L
  ASPARTATE AMINOTRANSFERASE: 84 u/L
  BLOOD UREA NITROGEN: 15.5 mg/dL
  CARBON DIOXIDE: 34 mmol/L
  CHLORIDE: 101.83 MEQ/L
  CHOLESTEROL: 57 mg/dL
  CREATININE: 0.21 mg/dL
  LACTATE DEHYDROGENASE: 104.67 u/L
  LIPASE: 9.17 u/L
  PHOSPHORUS: 11.12 mg/dL
  POTASSIUM: 5.81 MEQ/L
  SODIUM: 144.85 MEQ/L
  TOTAL BILIRUBIN: 0.18 mg/dL
  TOTAL PROTEIN: 5.92 G/DL
[4]
  ABSOLUTE BASOPHIL: 0 CELLS/uL
  ABSOLUTE EOSINOPHIL: 65.33 CELLS/uL
  ABSOLUTE LYMPHOCYTE: 15348.67 CELLS/uL
  ABSOLUTE MONOCYTE: 375.67 CELLS/uL
  ABSOLUTE SEGMENTED NEUTROPHIL: 2177 CELLS/uL
  BASOPHIL: 0%
  ERYTHROCYTE COUNT: 6.29 x10E6/uL
  HEMOGLOBIN: 13.53 G/DL
  LEUKOCYTE COUNT: 17.97 x10E3/uL
  MEAN CORPUSCULAR HEMOGLOBIN: 21.53 pg
  MEAN CORPUSCULAR HEMOGLOBIN CONCENTRATION: 36.13 G/DL
  MEAN CORPUSCULAR VOLUME: 59.7 fL
  NUCLEATED RED BLOOD CELLS: 0 /100WBC
  PLATELET COUNT: 1245.67 x10E3/uL
  ALANINE AMINOTRANSFERASE: 52.67 u/L
  ALBUMIN: 4 G/DL
  ALKALINE PHOSPHATASE: 340.67 u/L
  ASPARTATE AMINOTRANSFERASE: 85 u/L
  BLOOD UREA NITROGEN: 16.33 mg/dL
  CARBON DIOXIDE: 25.67 mmol/L
  CHLORIDE: 101 MEQ/L
  CHOLESTEROL: 83.33 mg/dL
  LACTATE DEHYDROGENASE: 441.33 u/L
  LIPASE: 9.67 u/L
  PHOSPHORUS: 12.23 mg/dL
  POTASSIUM: 6.83 MEQ/L
  SODIUM: 145.53 MEQ/L
  TOTAL BILIRUBIN: 0.13 mg/dL
  TOTAL PROTEIN: 6.3 G/DL
[5]
  ABSOLUTE BASOPHIL: 0 CELLS/uL
  ABSOLUTE EOSINOPHIL: 0 CELLS/uL
  ABSOLUTE LYMPHOCYTE: 14606 CELLS/uL
  ABSOLUTE MONOCYTE: 577.33 CELLS/uL
  ABSOLUTE SEGMENTED NEUTROPHIL: 4283.33 CELLS/uL
  BASOPHIL: 0%
  EOSINOPHIL: 0%
  ERYTHROCYTE COUNT: 6.1 x10E6/uL
  HEMOGLOBIN: 13.07 G/DL
  LEUKOCYTE COUNT: 19.47 x10E3/uL
  LYMPHOCYTE: 75%
  MEAN CORPUSCULAR HEMOGLOBIN: 21.43 pg
  MEAN CORPUSCULAR HEMOGLOBIN CONCENTRATION: 36.87 G/DL
  MEAN CORPUSCULAR VOLUME: 58.1 fL
  NUCLEATED RED BLOOD CELLS: 0 /100WBC
  PLATELET COUNT: 1295.33 x10E3/uL
  ALANINE AMINOTRANSFERASE: 52.33 u/L
  ALBUMIN: 3.83 G/DL
  ALKALINE PHOSPHATASE: 328 u/L
  ASPARTATE AMINOTRANSFERASE: 85.67 u/L
  CHOLESTEROL: 64.67 mg/dL
  CREATININE: 0.15 mg/dL
  LACTATE DEHYDROGENASE: 386.33 u/L
  LIPASE: 9 u/L
  PHOSPHORUS: 12.27 mg/dL
  POTASSIUM: 6.8 MEQ/L
  SODIUM: 147.2 MEQ/L
  TOTAL BILIRUBIN: 0.1 mg/dL
  TOTAL PROTEIN: 5.9 G/DL
